Patent publication US10106757B2, “Ionic liquid, lubricant, and magnetic recording medium” (DEXERIALS CORPORATION, priority 2016, dated 2018)
Blank lines part the entries; values can stand above or below the compound they belong to.

Assays:
[1] = Thermal stability by TG/DTA measurement; assay type: physicochemical; conditions: for Weight reduction temperature 5% / Weight reduction temperature 10% / Weight reduction temperature 20%: TG/DTA, 30-600° C., 10° C./min, air 200 mL/min; for Weight reduction temperatures higher than / thermal stability improved compared with Z-DOL: compared with Z-DOL (Comparative Example 5C); for Weight reduction temperatures higher than / thermal stability improved compared with Z-TETRAOL: compared with Z-TETRAOL (Comparative Example 6C)
[2] = Solubility test in hydrocarbon-based solvent n-hexane; assay type: physicochemical; conditions: 25° C., 0.5 parts by mass added to 100 parts, ultrasonic 5 minutes, left 1 day, visually observed
Method: (§1) To a predetermined amount of Vertrel XF or n-hexane, the ionic liquid, Z-DOL, or Z-TETRAOL was added. Ultrasonic waves were applied to the resultant mixture for 5 minutes, followed by leaving the mixture to stand for 1 day. The solubility was visually observed.
(§2) In case of n-hexane, similarly, 0.5 parts by mass of the ionic liquid, Z-DOL, or Z-TETRAOL was added to 100 parts by mass of n-hexane at 25° C. After applying ultrasonic waves to the resultant for 5 minutes, the resultant was left to stand for 1 day. Thereafter, the solubility was visually observed and evaluated based on the following evaluation criteria.
[Evaluation Criteria (Hydrocarbon-Based Solvent)]
• 0.5% by mass or greater:
Soluble with addition of 0.5 parts by mass • Less than 0.5% by mass:
Insoluble with addition of 0.5 parts by mass
(§3) Note that, the solubility was visually observed, and it was judged as soluble when it was transparent. Moreover, it was judged as not soluble (insoluble) when it was opaque or insoluble components were observed.

[3] = Solubility test in fluorine-based solvent Vertrel XF; assay type: physicochemical; conditions: 25° C., 0.2 parts by mass added to 100 parts, ultrasonic 5 minutes, left 1 day, visually observed
Method: as §1
as §2, with “Specifically, 0.2” for “In case of n-hexane, similarly, 0.5”, “Vertrel XF (25° C.).” for “n-hexane at 25° C.”
[Evaluation Criteria (Fluorine-Based Solvent)]
• 0.2% by mass or greater:
Soluble with addition of 0.2 parts by mass • Less than 0.2% by mass:
Insoluble with addition of 0.2 parts by mass
as §3

[4] = in acetonitrile; cited from earlier work

Compound: nonafluorobutanesulfonic acid-1,3-dioctadecyl-2-heptadecylimidazolium
- Weight reduction temperature 5% [1]: 279.7 °C
- Weight reduction temperature 10% [1]: 310.9 °C
- Weight reduction temperature 20% [1]: 361.9 °C
- Weight reduction temperatures higher than / thermal stability improved compared with Z-DOL [1]: ≥ 110 °C
- Weight reduction temperatures higher than / thermal stability improved compared with Z-TETRAOL [1]: ≥ 40 °C

Compound: CCCCCCCCCCCCn1cc[n+](CCCCCCCCCCCC)c1CCCCCCCCCCC.O=S(=O)([N-]S(=O)(=O)C(F)(F)C(F)(F)C(F)(F)C(F)(F)F)C(F)(F)C(F)(F)C(F)(F)C(F)(F)F [Ex. 2A, bis(nonafluorobutanesulfonyl)imide-1,3-didodecyl-2-undecylimidazolium]
- Weight reduction temperature 5% [1]: 335.7 °C
- Weight reduction temperature 10% [1]: 368.9 °C
- Weight reduction temperature 20% [1]: 395.7 °C
- Solubility n-hexane [2]: ≥ 0.5% by mass
- Solubility n-hexane ([2]; listed as Example 2A): ≥ 0.5 % by mass
- Solubility Vertrel XF [3]: ≥ 0.2% by mass
- Solubility Vertrel XF ([3]; listed as Example 2A): ≥ 0.2 % by mass

Compound: CCCCCCCCCCCCn1cc[n+](CCCCCCCCCCCC)c1CCCCCCCCCCC.O=S(=O)([N-]S(=O)(=O)C(F)(F)C(F)(F)C(F)(F)C(F)(F)F)C(F)(F)C(F)(F)C(F)(F)C(F)(F)F
- Weight reduction temperatures higher than / thermal stability improved compared with Z-DOL [1]: ≥ 170 °C
- Weight reduction temperatures higher than / thermal stability improved compared with Z-TETRAOL [1]: ≥ 90 °C

Compound: CCCCCCCCCCCCCCCCCCn1cc[n+](CCCCCCCCCCCCCCCCCC)c1CCCCCCCCCCCCCCCCC.O=S(=O)([N-]S(=O)(=O)C(F)(F)C(F)(F)C(F)(F)C(F)(F)F)C(F)(F)C(F)(F)C(F)(F)C(F)(F)F [Ex. 4A, bis(nonafluorobutanesulfonyl)imide-1,3-dioctadecyl-2-heptadecylimidazolium]
- Weight reduction temperature 5% [1]: 300.1 °C
- Weight reduction temperature 10% [1]: 337.3 °C
- Weight reduction temperature 20% [1]: 385.8 °C
- Solubility n-hexane [2]: ≥ 0.5% by mass
- Solubility n-hexane ([2]; listed as Example 4A): ≥ 0.5 % by mass
- Solubility Vertrel XF [3]: < 0.2% by mass
- Solubility Vertrel XF ([3]; listed as Example 4A): less than 0.2 % by mass

- Solubility n-hexane [2]: < 0.5% by mass
- Solubility Vertrel XF [3]: < 0.2% by mass
Compound: CCCCCCCCCCCCCCCCCC[n+]1ccn(CCCC)c1.O=S1(=O)[N-]S(=O)(=O)C(F)(F)C(F)(F)C1(F)F [Comp. Ex. 2A, hexafluorocyclopropane-1,3-bis(sulfonyl)imide-1-butyl-3-n-octadecylimidazolium, reference compound]

Compound: nonafluorobutanesulfonic acid-1,3-didodecyl-2-undecylimidazolium
- Weight reduction temperature 5% [1]: 287.9 °C
- Weight reduction temperature 10% [1]: 331.8 °C
- Weight reduction temperature 20% [1]: 378.4 °C
- Weight reduction temperatures higher than / thermal stability improved compared with Z-DOL [1]: ≥ 130 °C
- Weight reduction temperatures higher than / thermal stability improved compared with Z-TETRAOL [1]: ≥ 40 °C

Compound: O=S(=O)(C(S(=O)(=O)C(F)(F)F)S(=O)(=O)C(F)(F)F)C(F)(F)F [(CF3SO2)3CH]
- pKa [4]: −3.7

Compound: CCCCCCCCCCCCCCCCCCn1cc[n+](CCCCCCCCCCCCCCCCCC)c1CCCCCCCCCCCCCCCCC.O=S(=O)([N-]S(=O)(=O)C(F)(F)C(F)(F)C(F)(F)C(F)(F)F)C(F)(F)C(F)(F)C(F)(F)C(F)(F)F
- Weight reduction temperatures higher than / thermal stability improved compared with Z-DOL [1]: ≥ 140 °C
- Weight reduction temperatures higher than / thermal stability improved compared with Z-TETRAOL [1]: ≥ 60 °C
